# In publication PMC11452689 (Communications Biology, 2024):
# Test: LUV membrane polarisation, oxonol VI, Na+/K+ gradient
# Format: biochemical
# Details: 100 mM NaCl inside, 100 mM KCl outside, pH 7.2, 0.5 MIC
substance,measurement,value
valinomycin,"diffusion potential in the cation gradient LUV model, in words",inside positive polarisation
